Data: US20210380547A1, “UREA DERIVATIVES FOR TREATING AND/OR PREVENTING CANCER” (CENTRE NATIONAL DE LA RECHERCHE SCIENTIFIQUE, priority 2018, published 2021)
Read-outs that look alike come from different tables or passages of the source.

Experiments:
SKM1 = assay: XTT cell viability assay, SKM1; format: cell-based, human; conditions: XTT assay (48 h), standard deviation of 10%, read-out: EC50 (μM) MDS SKM1
Description: (§1) Fifty microliters of sodium 3′-[1-phenylaminocarbonyl)-3,4-tetrazolium]-bis(4-methoxy-6-nitro) benzene sulfonic acid hydrate (XTT) reagent was added to each well. The assay is based on the cleavage of the yellow tetrazolium salt XTT to form an orange formazan dye by metabolically active cells. The absorbance of the formazan product, reflecting cell viability, was measured at 490 nm. Each assay was performed in quadruplicate.
(§2) Compounds #1-#14 have been assayed as potential anti-proliferative agents against a panel of human breast head and neck, and kidney tumor cells and hematological malignancies, selected on the basis of their aggressiveness (e.g. incurable triple-negative breast cancer cells: MDA-MB-231; kidney ccRCC cells: RCC4, A498 and 786-O and 786R; head and neck cancer cells: CAL33, CAL33RR, CAL27, and CAL27RR; acute myeloid cell lines: OCI-AML2, OCI-AML3, MolM13, and MolM14; myelodysplastic cell line: SM1; and chronic myeloid cell line: CML). All these cell lines share as common denominator the expression of CXCR1 and CXCR2. The EC50 values have been measured by a XTT colorimetric assay, and compared to those of SB-225002, used as a reference; the results are listed in Table 1.

786-O = assay: XTT cell viability assay, 786-O; format: cell-based, human; conditions: Homo sapiens, 786-0; XTT assay (48 h); standard deviation of 10%; read-out: EC50 (μM) Kidney 786-O
Description: (§3) A, B: Naive (786-O, A), and sunitinib-resistant (786-R, B) 786-O cells, were treated with compound #1 or sunitinib (1 to 10 μM) for 48 hr. Cell viability was measured by XTT assays;
(§4) D, E: 786-O (D), 786-R (E), were treated with 2.5 μM compound #1 or 2.5 μM sunitinib for 24 h to 96 h. The cells metabolism was measured by XTT assay;
as §1, §2

MDA-MB-231 = assay: XTT cell viability assay, MDA-MB-231; format: cell-based; conditions: Homo sapiens, XTT assay (48 h), standard deviation of 10%, read-out: EC50 (μM) Breast MDA-MB-231
Description: as §1, §2

OCI-AML3 = assay: XTT cell viability assay, OCI-AML3; format: cell-based, human; conditions: XTT assay (48 h), standard deviation of 10%
Description: as §1, §2

MolM14 = assay: XTT cell viability assay, MolM14; format: cell-based, human; conditions: XTT assay (48 h), standard deviation of 10%, read-out: EC50 (μM) AML MolM14
Description: as §1, §2

OCI-AML2 = assay: XTT cell viability assay, OCI-AML2; format: cell-based, human; conditions: XTT assay (48 h), standard deviation of 10%, read-out: EC50 (μM) AML OCI-AML2
Description: as §1, §2

RCC4 = assay: XTT cell viability assay, RCC4; format: cell-based; conditions: Homo sapiens, XTT assay (48 h), standard deviation of 10%, read-out: EC50 (μM) Kidney RCC4
Description: as §1, §2

K562 = assay: XTT cell viability assay, K562; format: cell-based, human; conditions: XTT assay (48 h), standard deviation of 10%, read-out: EC50 (μM) CML K562
Description: as §1, §2

A498 = assay: XTT cell viability assay, A498; format: cell-based, human; conditions: XTT assay (48 h), standard deviation of 10%, read-out: EC50 (μM) Kidney A498
Description: as §1, §2

MolM13 = assay: XTT cell viability assay, MolM13; format: cell-based, human; conditions: XTT assay (48 h), standard deviation of 10%, read-out: EC50 (μM) AML MolM13
Description: as §1, §2

CAL33RR = assay: XTT cell viability assay, CAL33RR; format: cell-based; conditions: Homo sapiens, light or radiation study; XTT assay (48 h); resistant to irradiation and cisplatin; standard deviation of 10%; read-out: EC50 (μM) Head and Neck CAL33RR
Description: as §1, §2

786R = assay: XTT cell viability assay, 786R (sunitinib-resistant); format: cell-based, human; conditions: Homo sapiens, 48 h, XTT assay (48 h); sunitinib-resistant; standard deviation of 10%; read-out: EC50 (μM) Kidney 786R
Description: as §3, §4, §1, §2

CAL33 = assay: XTT cell viability assay, CAL33; format: cell-based; conditions: Homo sapiens, CAL-33; XTT assay (48 h); standard deviation of 10%; read-out: EC50 (μM) Head and Neck CAL33
Description: as §1, §2

CAL27RR = assay: XTT cell viability assay, CAL27RR (cisplatin-resistant); format: cell-based, human; conditions: Homo sapiens, light or radiation study; XTT assay (48 h); resistant to irradiation and cisplatin; standard deviation of 10%; read-out: EC50 (μM) Head and Neck CAL27RR
Description: (§5) A, B: Naive (Cal27, A), and cisplatine-resistant (Cal27R, B) Cal27 cells, were treated with compound #1 or cisplatine (1 to 10 μM) for 48 hr. Cell viability was measured by XTT assays;
(§6) C, D: Cal27 (C), cal27R (D), were treated with 2.5 μM compound #1, 2.5 μM cisplatin for 24 h to 96 h. The metabolism of cells was measured by XTT assay.
as §1, §2

CAL27 = assay: XTT cell viability assay, CAL27; format: cell-based, human; conditions: Homo sapiens, CAL-27, 48 h, XTT assay (48 h); standard deviation of 10%; read-out: EC50 (μM) Head and Neck CAL27
Description: as §5, §6, §1, §2

SMILES | EC50 (SKM1; Homo sapiens, SKM-1) | EC50 (786-O) | EC50 (MDA-MB-231) | EC50 (OCI-AML3; Homo sapiens, OCI-AML-3) | EC50 (MolM14; Homo sapiens, MOLM-14) | EC50 (OCI-AML2; Homo sapiens, OCI-AML2) | EC50 (RCC4) | EC50 (K562; Homo sapiens, K562) | EC50 (A498; Homo sapiens, A498) | EC50 (MolM13; Homo sapiens, MOLM-13) | EC50 (CAL33RR) | EC50 (786R) | EC50 (CAL33) | EC50 (CAL27) | also measured
Cc1ccc2nc(NC(=O)Nc3ccccc3Cl)sc2c1 [Compound #4, 1-(2-chlorophenyl)-3-(6-methylbenzo[d]thiazol-2-yl)urea] | 25 µM | 15 µM | > 25 µM | 10 µM | 10 µM | > 25 µM | > 25 µM | 25 µM | 15 µM | 15 µM | – | – | – | – | –
O=C(Nc1ccccc1)Nc1nc2ccccc2[nH]1 [Compound #5, 1-(1H-benzo[d]imidazol-2-yl)-3-phenylurea] | 25 µM | 20 µM | 12 µM | 25 µM | 20 µM | 18 µM | 25 µM | 10 µM | 10 µM | 25 µM | – | – | – | – | –
O=C(Nc1ccccc1)Nc1nc2ccccc2o1 [Compound #5-1, 1-(benzo[d]oxazol-2-yl)-3-phenylurea, reference compound] | > 25 µM | > 25 µM | > 25 µM | > 25 µM | > 25 µM | > 25 µM | > 25 µM | > 25 µM | > 25 µM | > 25 µM | – | – | – | – | –
O=C(Nc1ccc(Cl)cc1)Nc1nc2ccccc2[nH]1 [Compound #6, 1-(1H-benzo[d]imidazol-2-yl)-3-(4-chlorophenyl)urea] | > 25 µM | 20 µM | 20 µM | 22 µM | 20 µM | 20 µM | 20 µM | 12 µM | 9 µM | > 25 µM | – | – | – | – | –
O=C(Nc1nc2ccccc2s1)Nc1ccccc1Cl [Compound #7, 1-(benzo[d]thiazol-2-yl)-3-(2-chlorophenyl)urea] | > 25 µM | > 25 µM | > 25 µM | > 25 µM | > 25 µM | 10 µM | 25 µM | > 25 µM | > 25 µM | > 25 µM | – | – | – | – | –
O=C(Nc1cccc(Cl)c1)Nc1nc2ccccc2s1 [Compound #8, 1-(benzo[d]thiazol-2-yl)-3-(3-chlorophenyl)urea] | > 25 µM | > 25 µM | > 25 µM | > 25 µM | > 25 µM | > 25 µM | 20 µM | 25 µM | > 25 µM | > 25 µM | – | – | – | – | –
O=C(Nc1ccc(Cl)cc1)Nc1nc2ccccc2s1 [Compound #9, 1-(benzo[d]thiazol-2-yl)-3-(4-chlorophenyl)urea] | > 25 µM | > 25 µM | > 25 µM | > 25 µM | > 25 µM | > 25 µM | 20 µM | 25 µM | 25 µM | > 25 µM | – | – | – | – | –
COc1ccc(NC(=O)Nc2nc3ccccc3s2)cc1 [Compound #10, 1-(benzo[d]thiazol-2-yl)-3-(4-methoxyphenyl)urea] | > 25 µM | > 25 µM | > 25 µM | > 25 µM | > 25 µM | > 25 µM | 15 µM | 25 µM | > 25 µM | > 25 µM | – | – | – | – | –
O=C(Nc1cc(Cl)cc(Cl)c1)Nc1nc2ccc([N+](=O)[O-])cc2s1 [Compound #11, 1-(3,5-dichlorophenyl)-3-(6-nitrobenzo[d]thiazol-2-yl)urea] | – | 5 µM | – | – | – | – | 2 µM | – | 2.5 µM | – | 4 µM | 5 µM | 4 µM | 2.5 µM | EC50 (CAL27RR): 2.5 µM
O=C(Nc1ccc(Br)cc1)Nc1nc2ccc([N+](=O)[O-])cc2s1 [Compound #12, 1-(4-bromophenyl)-3-(6-nitrobenzo[d]thiazol-2-yl)urea] | – | 5 µM | – | – | – | – | 7 µM | – | 7 µM | – | 20 µM | 5 µM | < 2.5 µM | 5 µM | EC50 (CAL27RR): 2.5 µM
O=C(Nc1nc2ccc([N+](=O)[O-])cc2s1)Nc1ccccc1Br [Compound #13, 1-(2-bromophenyl)-3-(6-nitrobenzo[d]thiazol-2-yl)urea] | – | 15 µM | – | – | – | – | 25 µM | – | 20 µM | – | > 25 µM | 14 µM | 8 µM | > 25 µM | –
O=C(Nc1cccc(Cl)c1)Nc1nc2ccc([N+](=O)[O-])cc2[nH]1 [Compound #14, 1-(3-chlorophenyl)-3-(6-nitro-1H-benzo[d]imidazol-2-yl)urea] | – | 4 µM | – | – | – | – | 3 µM | – | 5 µM | – | 25 µM | 4 µM | 15 µM | 15 µM | EC50 (CAL27RR): 10 µM
O=C(Nc1ccc([N+](=O)[O-])cc1O)Nc1ccccc1Br [SB-225002, reference compound] | – | – | – | – | – | – | – | – | – | – | – | – | – | – | EC50 (SKM1): > 100 µM; EC50 (OCI-AML3; read-out: EC50 (μM) AML OCI-AML3): 90 µM; EC50 (MolM14): 90 µM; EC50 (OCI-AML2): > 100 µM; EC50 (K562): > 100 µM; EC50 (A498): 70 µM; EC50 (MolM13): > 100 µM
